Reference: the Deep4Chem optical property database
Each block holds one molecule with its values, some of them ahead of it.

Assay: solvent given as SMILES

SMILES: COC1(OC)C2(Cl)c3nc4cc(-c5cccs5)ccc4nc3C1(Cl)C1C[C@H]3[C@@H](CC12)C1(Cl)c2nc4ccc(-c5cccs5)cc4nc2C3(Cl)C1(OC)OC (stereo partly drawn)
- absorption maximum (in CC#N): 366 nm
- absorption maximum (in CCCCCC): 358 nm
- absorption maximum (in CCOC(C)=O): 362 nm
- absorption maximum (in CO): 368 nm
- absorption maximum (in Cc1ccccc1): 362 nm
- absorption maximum (in ClC(Cl)Cl): 366 nm
- absorption maximum (in ClCCl): 367 nm

SMILES: CN(C)c1ccc(C2=Nc3sc4c(F)c(F)c(F)c(F)c4[n+]3[B-](F)(F)O2)cc1
- absorption maximum (in C1CCOC1): 434 nm
- absorption maximum (in CC#N): 431 nm
- absorption maximum (in Cc1ccccc1): 431 nm
- absorption maximum (in ClCCl): 433 nm

SMILES: N#Cc1ccc(-c2cn3cc(C#N)c[n+]3[n-]2)cc1
- absorption maximum (in ClCCl): 360 nm

SMILES: c1ccc(N2c3ccc4ccccc4c3-c3c4ccccc4nc[n+]3[B-]2(c2ccccc2)c2ccccc2)cc1
- absorption maximum (in C1CCC2CCCCC2C1): 542 nm
- absorption maximum (in C1CCCCC1): 539 nm
- absorption maximum (in C1CCOC1): 535 nm
- absorption maximum (in CC#N): 527 nm
- absorption maximum (in CC(C)=O): 530 nm
- absorption maximum (in CCCCCC): 537 nm
- absorption maximum (in CCOC(C)=O): 532 nm
- absorption maximum (in CN(C)C=O): 532 nm
- absorption maximum (in Cc1ccccc1): 539 nm
- absorption maximum (in ClC(Cl)Cl): 541 nm

SMILES: CCN(CC)c1ccc(/C=N/C(C#N)=C(C#N)\N=C\c2ccc(N(CC)CC)cc2O)c(O)c1
- absorption maximum (in CC#N): 564 nm

SMILES: CN(C)c1ccc(-c2nc3c(c4c2-c2ccc(C#N)cc2CC4)-c2ccc(C#N)cc2CC3)cc1
- absorption maximum (in C1CCOC1): 344 nm
- absorption maximum (in CC#N): 343 nm
- absorption maximum (in CCCCCC): 348 nm
- absorption maximum (in CCOC(C)=O): 333 nm
- absorption maximum (in CO): 332 nm
- absorption maximum (in CS(C)=O): 344 nm
- absorption maximum (in Cc1ccccc1): 344 nm
- absorption maximum (in ClCCl): 342 nm

SMILES: C[n+]1ccc(-c2cc[n+](C)cc2)cc1
- absorption maximum (in CC#N): 260 nm

SMILES: CC[N+]1(CC)CN2C(=N1)C(C(=O)[O-])=Cc1ccccc12
- absorption maximum (in CN(C)C=O): 378 nm
- absorption maximum (in O): 369 nm

SMILES: CC(C)(C)Nc1cc2oc3cc(NC(C)(C)C)c(F)cc3c(=O)c2cc1F
- absorption maximum (in CCO): 368 nm

SMILES: CCN=C=S
- absorption maximum (in CCCCCC): 250 nm

SMILES: Cc1cc2cc(N3c4ccccc4Oc4ccccc43)ccc2c(=O)o1
- absorption maximum (in Cc1ccccc1): 395 nm

SMILES: CCN1CCN(c2ccc(/N=N/c3cc(C(F)(F)F)cc(C(F)(F)F)c3)cc2)CC1
- absorption maximum (in CCOC(C)=O): 427 nm

SMILES: CCCCCCc1ccsc1-c1ccc(-c2sc(C(=O)O)cc2CCCCCC)s1
- absorption maximum (in CC(C)=O): 361 nm
- absorption maximum (in CCCCCC): 357 nm
- absorption maximum (in CCO): 352 nm
- absorption maximum (in CO): 352 nm
- absorption maximum (in ClCCl): 364 nm
- absorption maximum (in O): 365 nm

SMILES: O=C1c2ccccc2C(=O)N1c1ccc(Cn2cncn2)cc1
- absorption maximum (in C1CCOC1): 293 nm
- absorption maximum (in C1COCCO1): 284 nm
- absorption maximum (in CC#N): 315 nm
- absorption maximum (in CC(C)=O): 304 nm
- absorption maximum (in CC(C)O): 306 nm
- absorption maximum (in CCCCCC): 278 nm
- absorption maximum (in CCCCO): 302 nm
- absorption maximum (in CCO): 308 nm
- absorption maximum (in CCOC(C)=O): 290 nm
- absorption maximum (in CCOCC): 289 nm
- absorption maximum (in CN(C)C=O): 314 nm
- absorption maximum (in CO): 312 nm
- absorption maximum (in CS(C)=O): 320 nm
- absorption maximum (in Cc1ccccc1): 283 nm
- absorption maximum (in ClCCl): 294 nm

SMILES: Cc1ccc(-c2cc(-c3ccccc3)c(C#N)c(=S)[nH]2)cc1
- absorption maximum (in C1CCCCC1): 488 nm
- absorption maximum (in C1COCCO1): 442 nm
- absorption maximum (in CC#N): 430 nm
- absorption maximum (in CCOCC): 440 nm
- absorption maximum (in CN(C)C=O): 438 nm
- absorption maximum (in ClC(Cl)(Cl)Cl): 446 nm

SMILES: c1ccc(-c2nc(-c3ccccc3)nc(-c3ccc(-c4ccc5c(c4)C4(c6ccccc6-c6ccccc64)c4cc(-c6ccc(-c7nc(-c8ccccc8)nc(-c8ccccc8)n7)cc6)ccc4N5c4ccccc4)cc3)n2)cc1
- absorption maximum (in c1cc(-c2cccc(-n3c4ccccc4c4ccccc43)c2)cc(-n2c3ccccc3c3ccccc32)c1): 405.11 nm

SMILES: Cc1cc2nc3[nH]c(=O)n(C)c(=O)c3nc2cc1C
- absorption maximum (in CC#N): 379 nm

SMILES: CC[N+]1(CC)CN2C(=N1)C(C(=O)O)=Cc1cc(OC)ccc12
- absorption maximum (in O): 394 nm

SMILES: CN(C)c1ccc(/C=C/C(=C(C#N)C#N)c2ccc3c4c(cccc24)CC3)cc1
- absorption maximum (in C1CCOC1): 488 nm
- absorption maximum (in CC#N): 494 nm
- absorption maximum (in CC(C)=O): 492 nm
- absorption maximum (in CCOC(C)=O): 497 nm
- absorption maximum (in CN(C)C=O): 505 nm
- absorption maximum (in CO): 496 nm
- absorption maximum (in Cc1ccccc1): 487 nm
- absorption maximum (in ClC(Cl)Cl): 483 nm

SMILES: CCCCCCCCN1c2ccc(C#Cc3ccc(C(F)(F)F)cc3)cc2Sc2cc(C=O)ccc21
- absorption maximum (in C1CCOC1): 384.01 nm
- absorption maximum (in CC#N): 380 nm
- absorption maximum (in CCCCCC): 376.01 nm
- absorption maximum (in CO): 362 nm
- absorption maximum (in CS(C)=O): 389.99 nm
- absorption maximum (in Cc1ccccc1): 381.99 nm
- absorption maximum (in ClC(Cl)Cl): 389.99 nm

SMILES: CCCCCCOc1ccc(/C=C/c2ccc(N(c3ccc(/C=C/c4ccc(OCCCCCC)cc4)cc3)c3ccc(-c4nc5ccccc5nc4-c4ccc(N(c5ccc(/C=C/c6ccc(OCCCCCC)cc6)cc5)c5ccc(/C=C/c6ccc(OCCCCCC)cc6)cc5)cc4)cc3)cc2)cc1
- absorption maximum (in C1CCOC1): 378 nm
- absorption maximum (in Cc1ccccc1): 374 nm

SMILES: FC(F)(F)c1ccc(C#Cc2cc(C#Cc3ccc(C(F)(F)F)cc3)c3ccc4c(C#Cc5ccc(C(F)(F)F)cc5)cc(C#Cc5ccc(C(F)(F)F)cc5)c5ccc2c3c54)cc1
- absorption maximum (in ClCCl): 467 nm

SMILES: CC(C)[Si]1(C(C)C)c2cc(C=O)ccc2-c2ccc(N(c3ccccc3)c3ccccc3)cc21
- absorption maximum (in C1CCCCC1): 403 nm
- absorption maximum (in CC#N): 392 nm
- absorption maximum (in CCO): 396 nm
- absorption maximum (in CCOCC): 393 nm
- absorption maximum (in CS(C)=O): 398 nm
- absorption maximum (in ClCCl): 401 nm
- absorption maximum (in c1ccccc1): 398 nm

SMILES: COc1ccc(-n2nc(C#N)c(N3CCCCCC3)n2)cc1
- absorption maximum (in CC#N): 344 nm

SMILES: Cc1c[nH]c(=O)[nH]c1=O
- absorption maximum (in CC#N): 261 nm

SMILES: Nc1ncc2nc[nH]c2n1
- absorption maximum (in O): 290 nm

SMILES: Cc1cc2c(cc1C)NC(=O)CC(=O)N2
- absorption maximum (in CS(C)=O): 297 nm

Now from value to molecule:

- absorption maximum (in CC#N): 280 nm
- absorption maximum (in CCOC(C)=O): 280 nm
- absorption maximum (in CO): 280 nm
SMILES: COC(=O)C[C@H](Cc1c[nH]c2ccccc12)NC(=O)[C@H](CC(=O)N[C@@H](CC1=CCc2ccccc21)C(=O)OC)NC(=O)OC(C)(C)C

- absorption maximum (in ClC(Cl)Cl): 562 nm
SMILES: F[B-]1(F)n2cccc2C(c2ccccc2)=C2C=CC(c3ccc(OC4=[N+]5C(=C(c6ccccc6)c6cc(Br)c(Br)n6[B-]5(F)F)C=C4Br)cc3)=[N+]21

- absorption maximum (in ClCCl): 357 nm
SMILES: Cc1cc(=O)cc(-c2ccc(-c3nc4ccccn4c3NC3CCCCC3)cc2)o1

- absorption maximum (in ClCCl): 370 nm
SMILES: C(=C/c1ccc(N(c2ccccc2)c2ccccc2)cc1)/c1ccc(N(c2ccccc2)c2ccccc2)cc1

- absorption maximum (in ClCCl): 321 nm
SMILES: CCOC(=O)c1c(-c2cc3ccccc3oc2=O)nn(-c2cccc(C)c2)c1C(=O)OCC

- absorption maximum (in C1CCCCC1): 388 nm
- absorption maximum (in CC#N): 392 nm
SMILES: CC(C)c1ccc(/C=C/c2nc3ccc(N(C)C)cc3s2)cc1

- absorption maximum (in ClC(Cl)Cl): 326 nm
SMILES: CCCCn1c2ccccc2c2ccc3c4cc(-c5ccc(C(F)(F)F)cc5)ccc4n(CCCC)c3c21

- absorption maximum (in CCCCCC): 542 nm
SMILES: CC(C)[Si](C#Cc1c2cc3ccccc3cc2c(C#C[Si](C(C)C)(C(C)C)C(C)C)c2nc3c(nc12)C1c2ccccc2C3c2ccccc21)(C(C)C)C(C)C

- absorption maximum (in ClCCl): 352 nm
SMILES: c1csc(-c2ccc3c4ccc(-c5cccs5)cc4n(-c4cccs4)c3c2)c1

- absorption maximum (in ClC(Cl)Cl): 371 nm
SMILES: CCCCC1(c2ccccc2)Nc2c(-c3ccc(N(C)C)cc3)ccc(-c3ccc(N(C)C)cc3)c2N=C1c1ccccc1 (stereo not drawn)

- absorption maximum (in ClCCl): 377 nm
SMILES: CCN(CC)c1ccc2c(c1)oc(=O)c1cc3c(C)nn(-c4ccccc4)c3nc12

- absorption maximum (in ClC(Cl)Cl): 352 nm
SMILES: N#Cc1ccc(Oc2ccc3c4c(cccc24)C(=O)N(CCO)C3=O)cc1

- absorption maximum (in O): 397 nm
SMILES: CC[n+]1c(-c2ccccc2)c2cc(NC(N)=[NH2+])ccc2c2ccc(NC(N)=[NH2+])cc21

- absorption maximum (in C1CCCCC1): 395 nm
- absorption maximum (in CC#N): 398 nm
- absorption maximum (in CO): 396 nm
- absorption maximum (in ClCCl): 398 nm
SMILES: COc1c2ccccc2c(OC)c2c1c1ccc(F)cc1n2C

- absorption maximum (in ClCCl): 405 nm
SMILES: CCN(CC)c1ccc2c(c1)oc(=O)c1cnc3c(cnn3-c3ccccc3)c12

- absorption maximum (in CC#N): 388 nm
- absorption maximum (in ClCCl): 398 nm
SMILES: Cn1c(=O)cc(C(=O)c2ccccc2)c2sc(-c3ccc(C(F)(F)F)cc3)cc21

- absorption maximum (in ClCCl): 367 nm
SMILES: COc1ccc(N(c2ccc(OC)cc2)c2ccc(-c3ccc(-c4ccc5nc6ccccc6c(=O)n5c4)cc3)cc2)cc1

- absorption maximum (in CCCCCCC): 400 nm
SMILES: c1ccc2cc3c(cc2c1)-c1cccc2c1c-3cc1ccccc12

- absorption maximum (in ClCCl): 348 nm
SMILES: C#Cc1ccc(-c2nc(-c3ccc(C#C)s3)nc(-c3ccc(C#C)s3)n2)s1

- absorption maximum (in CC1CCCCC1): 386 nm
- absorption maximum (in CC#N): 386 nm
SMILES: C(=C\c1c2ccccc2cc2ccccc12)/c1cnc2ccccc2c1

- absorption maximum (in CC#N): 334 nm
- absorption maximum (in ClCCl): 353 nm
SMILES: O=c1c2ccccc2nc2n1[B-](F)(F)[n+]1ccccc1-2

- absorption maximum (in ClC(Cl)Cl): 409 nm
SMILES: CCc1ccc(-n2c3ccccc3c3cc4c(cc32)c2ccccc2n4-c2ccc(CC)cc2)cc1

- absorption maximum (in C1CCCCC1): 444 nm
SMILES: c1ccc(-c2cc3cccc4cc(-c5ccccc5)c5cc(-c6cc7[b-]8c(c6)c(-c6ccccc6)cc6cccc(cc7-c7ccccc7)[n+]86)cc2[b-]5[n+]34)cc1

- absorption maximum (in ClCCl): 484 nm
SMILES: CN(C)c1ccc(C2=CC3=C(c4ccc([N+](=O)[O-])cc4)[C@H]4c5ccccc5[C@]3(S2)c2ccccc24)cc1

- absorption maximum (in C1CCOC1): 407 nm
- absorption maximum (in CCCCCC): 399 nm
- absorption maximum (in ClC(Cl)Cl): 402 nm
- absorption maximum (in ClCCl): 410 nm
SMILES: O=C1c2cccc3c(-n4c5ccccc5c5ccccc54)ccc(c23)C(=O)N1C1CCCCC1

- absorption maximum (in C1CCCCC1): 427 nm
SMILES: Cc1cc(C)c(B2c3cc(C(C)(C)C)cc4ccc5ccc6cc(C(C)(C)C)cc2c6c5c34)c(C)c1

- absorption maximum (in C1COCCO1): 448 nm
SMILES: CN(C)c1ccc(/C=C/c2ccc([N+](=O)[O-])c(O)c2)cc1

- absorption maximum (in CC#N): 376 nm
SMILES: CCOC(=O)c1c2c3c(cccc3c3cc4c(cc13)[Si](C)(C)O[Si]4(C)C)N(C)C2=O

- absorption maximum (in CCCCCCC): 383 nm
SMILES: c1ccc2c3c(ccc2c1)-c1cccc2c1c-3cc1ccccc12
